Results taken from patent US20240059671A1, “TYROSINE KINASE 2 (TYK2) DEGRADATION COMPOUNDS AND METHODS OF USE” (CULLGEN (SHANGHAI), INC., priority 2020, published 2024).
“Also recorded” adds a separate entry of the source.

Target: TYK2 (Homo sapiens, UniProt P29597)
Test: TYK2 protein degradation in NOMO-1 cells by immunoblotting
Format: cell-based
Set-up: endogenous in cells
Conditions: for TYK2 Degradation (NOMO-1, 10 nM) / TYK2 Degradation (NOMO-1, 100 nM): NOMO-1 cells
Experimental: NOMO-1 cells were treated with CPD-155, CPD-157, and CPD-158 at 0.1, 1, 10, 100 and 1000 nM concentrations for 16 hours. […] Data shown that CPD-155, CPD-157, and CPD-158 are very potent at the reduction protein levels of TYK2.
MOLT-4 or NOMO-1 cells were cultured at 37° C. with 5% CO2 in RPMI 1640 Medium supplemented with 10% fetal bovine serum. Cells were authenticated using the short tandem repeat (STR) assays. Mycoplasma test results were negative.
Cultured cells were washed with cold PBS once and lysed in cold RIPA buffer supplemented with protease inhibitors and phosphatase inhibitors (Beyotime Biotechnology). The solutions were then incubated at 4° C. for 30 minutes with gentle agitation to fully lyse cells. Cell lysates were centrifuged at 13,000 rpm for 10 minutes at 4° C. and pellets were discarded. Total protein concentrations in the lysates were determined by BCA assays (Beyotime Biotechnology). Cell lysates were mixed with Laemmli loading buffer to 1× and heated at 99° C. for 5 min. Proteins were resolved on SDS-PAGE and visualized by chemiluminescence. Images were taken by a ChemiDoc MP Imaging system (Bio-Rad). Protein bands were quantitated using the accompanied software provided by Bio-Rad.

Sequence of TYK2 (P29597 whole entry): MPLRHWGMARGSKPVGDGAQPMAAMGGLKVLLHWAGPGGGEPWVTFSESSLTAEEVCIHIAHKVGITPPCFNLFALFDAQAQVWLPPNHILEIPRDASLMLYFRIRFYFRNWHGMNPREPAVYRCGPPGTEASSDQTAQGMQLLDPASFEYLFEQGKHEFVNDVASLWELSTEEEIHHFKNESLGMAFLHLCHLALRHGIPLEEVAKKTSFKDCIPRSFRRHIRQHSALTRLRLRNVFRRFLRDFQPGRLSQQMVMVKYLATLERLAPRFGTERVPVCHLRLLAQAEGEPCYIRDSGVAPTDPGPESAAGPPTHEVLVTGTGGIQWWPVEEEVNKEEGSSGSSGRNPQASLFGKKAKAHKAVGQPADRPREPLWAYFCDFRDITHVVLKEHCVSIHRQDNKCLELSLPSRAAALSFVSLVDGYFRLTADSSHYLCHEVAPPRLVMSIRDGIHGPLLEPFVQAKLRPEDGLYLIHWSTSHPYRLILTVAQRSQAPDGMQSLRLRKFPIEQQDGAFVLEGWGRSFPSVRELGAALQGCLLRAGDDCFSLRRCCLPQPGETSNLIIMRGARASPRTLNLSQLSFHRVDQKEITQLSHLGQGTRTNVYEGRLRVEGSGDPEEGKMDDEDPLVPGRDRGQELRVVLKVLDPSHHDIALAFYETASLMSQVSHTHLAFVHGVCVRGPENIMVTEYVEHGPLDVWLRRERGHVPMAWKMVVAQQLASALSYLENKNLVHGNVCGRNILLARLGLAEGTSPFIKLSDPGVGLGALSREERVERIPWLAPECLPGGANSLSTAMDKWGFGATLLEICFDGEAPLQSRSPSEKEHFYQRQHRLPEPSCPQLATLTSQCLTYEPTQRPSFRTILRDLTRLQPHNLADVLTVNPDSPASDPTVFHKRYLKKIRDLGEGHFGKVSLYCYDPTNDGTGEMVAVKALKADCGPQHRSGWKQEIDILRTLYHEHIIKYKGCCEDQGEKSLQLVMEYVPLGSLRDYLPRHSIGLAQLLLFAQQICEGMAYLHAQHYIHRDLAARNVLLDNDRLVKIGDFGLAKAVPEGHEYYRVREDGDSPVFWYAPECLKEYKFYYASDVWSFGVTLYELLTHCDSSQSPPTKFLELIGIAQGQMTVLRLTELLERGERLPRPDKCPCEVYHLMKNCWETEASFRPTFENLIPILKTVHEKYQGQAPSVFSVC

CNC(=O)c1nnc(Nc2ccc(C#CC3CN(C(=O)CCCCC(=O)N[C@H](C(=O)N4C[C@H](O)C[C@H]4C(=O)N[C@@H](C)c4ccc(-c5scnc5C)cc4)C(C)(C)C)C3)cn2)cc1Nc1cccc(-c2ncn(C)n2)c1OC [CPD-123, 6-((5-((1-(6-(((S)-1-((2S,4R)-4-Hydroxy-2-(((S)-1-(4-(4-methylthiazol-5-yl)phenyl)ethyl)carbamoyl)pyrrolidin-1-yl)-3,3-dimethyl-1-oxobutan-2-yl)amino)-6-oxohexanoyl)azetidin-3-yl)ethynyl)pyridin-2-yl)amino)-4-((2-methoxy-3-(1-methyl-1H-1,2,4-triazol-3-yl)phenyl)amino)-N-methylpyridazine-3-carboxamide]
TYK2 Degradation (NOMO-1, 10 nM): B (B: <60% TYK2 degradation, and >20% TYK2 degradation)
TYK2 Degradation (NOMO-1, 100 nM): A (A: ≥60% TYK2 degradation)

CNC(=O)c1nnc(Nc2ccc(N3CCN(C(=O)CCCCCCCC(=O)N[C@H](C(=O)N4C[C@H](O)C[C@H]4C(=O)N[C@@H](C)c4ccc(-c5scnc5C)cc4)C(C)(C)C)CC3)cn2)cc1Nc1cccc(-c2ncn(C)n2)c1OC [CPD-115, 6-((5-(4-(9-(((S)-1-((2S,4R)-4-hydroxy-2-(((S)-1-(4-(4-methylthiazol-5-yl)phenyl)ethyl)carbamoyl)pyrrolidin-1-yl)-3,3-dimethyl-1-oxobutan-2-yl)amino)-9-oxononanoyl)piperazin-1-yl)pyridin-2-yl)amino)-4-((2-methoxy-3-(1-methyl-1H-1,2,4-triazol-3-yl)phenyl)amino)-N-methylpyridazine-3-carboxamide]
TYK2 Degradation (NOMO-1, 10 nM): A (A: ≥60% TYK2 degradation)
TYK2 Degradation (NOMO-1, 100 nM): A (A: ≥60% TYK2 degradation)

CNC(=O)c1nnc(Nc2ccc(C(=O)NCCCNc3ccc4c(c3)C(=O)N(C3CCC(=O)NC3=O)C4=O)cn2)cc1Nc1cccc(-c2ncn(C)n2)c1OC (centres unmarked) [CDD-175, 6-((5-((3-((2-(2,6-dioxopiperidin-3-yl)-1,3-dioxoisoindolin-5-yl)amino)propyl)carbamoyl)pyridin-2-yl)amino)-4-((2-methoxy-3-(1-methyl-1H-1,2,4-triazol-3-yl)phenyl)amino)-N-methylpyridazine-3-carboxamide]
TYK2 Degradation (NOMO-1, 10 nM): A (A: ≥60% TYK2 degradation)
TYK2 Degradation (NOMO-1, 100 nM): A (A: ≥60% TYK2 degradation)

CNC(=O)c1nnc(Nc2ccc(C#CC3CCN(C(=O)CCCCCCC(=O)N[C@H](C(=O)N4C[C@H](O)C[C@H]4C(=O)N[C@@H](C)c4ccc(-c5scnc5C)cc4)C(C)(C)C)CC3)cn2)cc1Nc1cccc(-c2ncn(C)n2)c1OC [CPD-119, 6-((5-((1-(8-(((S)-1-((2S,4R)-4-Hydroxy-2-(((S)-1-(4-(4-methylthiazol-5-yl)phenyl)ethyl)carbamoyl)pyrrolidin-1-yl)-3,3-dimethyl-1-oxobutan-2-yl)amino)-8-oxooctanoyl)piperidin-4-yl)ethynyl)pyridin-2-yl)amino)-4-((2-methoxy-3-(1-methyl-1H-1,2,4-triazol-3-yl)phenyl)amino)-N-methylpyridazine-3-carboxamide]
TYK2 Degradation (NOMO-1, 100 nM): A (A: ≥60% TYK2 degradation)

CNC(=O)c1nnc(Nc2ccc(N3CCN(C4CCN(C(=O)CCCC(=O)N[C@H](C(=O)N5C[C@H](O)C[C@H]5C(=O)N[C@@H](C)c5ccc(-c6scnc6C)cc5)C(C)(C)C)CC4)CC3)cn2)cc1Nc1cccc(-c2ncn(C)n2)c1OC [CPD-146, 6-((5-(4-(1-(5-(((S)-1-((2S,4R)-4-Hydroxy-2-(((S)-1-(4-(4-methylthiazol-5-yl)phenyl)ethyl)carbamoyl)pyrrolidin-1-yl)-3,3-dimethyl-1-oxobutan-2-yl)amino)-5-oxopentanoyl)piperidin-4-yl)piperazin-1-yl)pyridin-2-yl)amino)-4-((2-methoxy-3-(1-methyl-1H-1,2,4-triazol-3-yl)phenyl)amino)-N-methylpyridazine-3-carboxamide]
TYK2 Degradation (NOMO-1, 10 nM): B (B: <60% TYK2 degradation, and >20% TYK2 degradation)
TYK2 Degradation (NOMO-1, 100 nM): A (A: ≥60% TYK2 degradation)

CNC(=O)c1nnc(Nc2ccc(C(=O)NCCOCCNc3cccc4c3C(=O)N(C3CCC(=O)NC3=O)C4=O)cn2)cc1Nc1cccc(-c2ncn(C)n2)c1OC (centres unmarked) [CPD-159, 6-((5-((2-(2-((2-(2,6-dioxopiperidin-3-yl)-1,3-dioxoisoindolin-4-yl)amino)ethoxy)ethyl)carbamoyl)pyridin-2-yl)amino)-4-((2-methoxy-3-(1-methyl-1H-1,2,4-triazol-3-yl)phenyl)amino)-N-methylpyridazine-3-carboxamide]
TYK2 Degradation (NOMO-1, 10 nM): A (A: ≥60% TYK2 degradation)
TYK2 Degradation (NOMO-1, 100 nM): A (A: ≥60% TYK2 degradation)

CNC(=O)c1nnc(Nc2ccc(C#CC3CN(C(=O)CCC(=O)N[C@H](C(=O)N4C[C@H](O)C[C@H]4C(=O)N[C@@H](C)c4ccc(-c5scnc5C)cc4)C(C)(C)C)C3)cn2)cc1Nc1cccc(-c2ncn(C)n2)c1OC [CPD-122, 6-((5-((1-(4-(((S)-1-((2S,4R)-4-Hydroxy-2-(((S)-1-(4-(4-methylthiazol-5-yl)phenyl)ethyl)carbamoyl)pyrrolidin-1-yl)-3,3-dimethyl-1-oxobutan-2-yl)amino)-4-oxobutanoyl)azetidin-3-yl)ethynyl)pyridin-2-yl)amino)-4-((2-methoxy-3-(1-methyl-1H-1,2,4-triazol-3-yl)phenyl)amino)-N-methylpyridazine-3-carboxamide]
TYK2 Degradation (NOMO-1, 100 nM): C (C: ≤20% TYK2 degradation)

CNC(=O)c1nnc(Nc2ccc(N3CCN(C4CCN(C(=O)CCCCC(=O)N[C@H](C(=O)N5C[C@H](O)C[C@H]5C(=O)N[C@@H](C)c5ccc(-c6scnc6C)cc5)C(C)(C)C)CC4)CC3)cn2)cc1Nc1cccc(-c2ncn(C)n2)c1OC [CPD-147, 6-((5-(4-(1-(6-(((S)-1-((2S,4R)-4-Hydroxy-2-(((S)-1-(4-(4-methylthiazol-5-yl)phenyl)ethyl)carbamoyl)pyrrolidin-1-yl)-3,3-dimethyl-1-oxobutan-2-yl)amino)-6-oxohexanoyl)piperidin-4-yl)piperazin-1-yl)pyridin-2-yl)amino)-4-((2-methoxy-3-(1-methyl-1H-1,2,4-triazol-3-yl)phenyl)amino)-N-methylpyridazine-3-carboxamide]
TYK2 Degradation (NOMO-1, 10 nM): B (B: <60% TYK2 degradation, and >20% TYK2 degradation)
TYK2 Degradation (NOMO-1, 100 nM): A (A: ≥60% TYK2 degradation)

CNC(=O)c1nnc(Nc2ccc(C(=O)NCCCCCCCNc3cccc4c3C(=O)N(C3CCC(=O)NC3=O)C4=O)cn2)cc1Nc1cccc(-c2ncn(C)n2)c1OC (centres unmarked) [CPD-157, 6-((5-((7-((2-(2,6-dioxopiperidin-3-yl)-1,3-dioxoisoindolin-4-yl)amino)heptyl)carbamoyl)pyridin-2-yl)amino)-4-((2-methoxy-3-(1-methyl-1H-1,2,4-triazol-3-yl)phenyl)amino)-N-methylpyridazine-3-carboxamide]
TYK2 Degradation (NOMO-1, 10 nM): A (A: ≥60% TYK2 degradation)
TYK2 Degradation (NOMO-1, 100 nM): C (C: ≤20% TYK2 degradation)
Reduction of TYK2 protein levels over a dose range (FIG. 2) (NOMO-1 cells, 0.1, 1, 10, 100 and 1000 nM, 16 hours): concentration-dependently reduced the TYK2 proteins levels; also recorded: highly potent in reducing TYK2 protein levels

CNC(=O)c1nnc(Nc2ccc(N3CCN(C4CCN(C(=O)CCCCCC(=O)N[C@H](C(=O)N5C[C@H](O)C[C@H]5C(=O)N[C@@H](C)c5ccc(-c6scnc6C)cc5)C(C)(C)C)CC4)CC3)cn2)cc1Nc1cccc(-c2ncn(C)n2)c1OC [CPD-148, 6-((5-(4-(1-(7-(((S)-1-((2S,4R)-4-hydroxy-2-(((S)-1-(4-(4-methylthiazol-5-yl)phenyl)ethyl)carbamoyl)pyrrolidin-1-yl)-3,3-dimethyl-1-oxobutan-2-yl)amino)-7-oxoheptanoyl)piperidin-4-yl)piperazin-1-yl)pyridin-2-yl)amino)-4-((2-methoxy-3-(1-methyl-1H-1,2,4-triazol-3-yl)phenyl)amino)-N-methylpyridazine-3-carboxamide]
TYK2 Degradation (NOMO-1, 10 nM): A (A: ≥60% TYK2 degradation)
TYK2 Degradation (NOMO-1, 100 nM): A (A: ≥60% TYK2 degradation)

CNC(=O)c1nnc(Nc2ccc(C#CC3CCN(C(=O)CCCC(=O)N[C@H](C(=O)N4C[C@H](O)C[C@H]4C(=O)N[C@@H](C)c4ccc(-c5scnc5C)cc4)C(C)(C)C)CC3)cn2)cc1Nc1cccc(-c2ncn(C)n2)c1OC [CPD-134, 6-((5-((1-(5-(((S)-1-((2S,4R)-4-hydroxy-2-(((S)-1-(4-(4-methylthiazol-5-yl)phenyl)ethyl)carbamoyl)pyrrolidin-1-yl)-3,3-dimethyl-1-oxobutan-2-yl)amino)-5-oxopentanoyl)piperidin-4-yl)ethynyl)pyridin-2-yl)amino)-4-((2-methoxy-3-(1-methyl-1H-1,2,4-triazol-3-yl)phenyl)amino)-N-methylpyridazine-3-carboxamide]
TYK2 Degradation (NOMO-1, 10 nM): A (A: ≥60% TYK2 degradation)
TYK2 Degradation (NOMO-1, 100 nM): A (A: ≥60% TYK2 degradation)

CNC(=O)c1nnc(Nc2ccc(N3CCN(C(=O)CCCCCCC(=O)N[C@H](C(=O)N4C[C@H](O)C[C@H]4C(=O)N[C@H]4CCCc5c4cc(C#N)n5C)C(C)(C)C)CC3)cn2)cc1Nc1cccc(-c2ncn(C)n2)c1OC [CDD-173, 6-((5-(4-(8-(((S)-1-((2S,4R)-2-(((S)-2-cyano-1-methyl-4,5,6,7-tetrahydro-1H-indol-4-yl)carbamoyl)-4-hydroxypyrrolidin-1-yl)-3,3-dimethyl-1-oxobutan-2-yl)amino)-8-oxooctanoyl)piperazin-1-yl)pyridin-2-yl)amino)-4-((2-methoxy-3-(1-methyl-1H-1,2,4-triazol-3-yl)phenyl)amino)-N-methylpyridazine-3-carboxamide]
TYK2 Degradation (NOMO-1, 10 nM): C (C: ≤20% TYK2 degradation)
TYK2 Degradation (NOMO-1, 100 nM): C (C: ≤20% TYK2 degradation)
